Here are results for 8 compounds from ChEMBL document CHEMBL2074221, “Breast cancer resistance protein (BCRP/ABCG2) induces cellular resistance to HIV-1 nucleoside reverse transcriptase inhibitors” (Mol Pharmacol, 2003).

Series [1] concerns the target T1, Broad substrate specificity ATP-binding cassette transporter ABCG2 (Homo sapiens, UniProt Q9UNQ0).
T1 sequence (Q9UNQ0 whole entry): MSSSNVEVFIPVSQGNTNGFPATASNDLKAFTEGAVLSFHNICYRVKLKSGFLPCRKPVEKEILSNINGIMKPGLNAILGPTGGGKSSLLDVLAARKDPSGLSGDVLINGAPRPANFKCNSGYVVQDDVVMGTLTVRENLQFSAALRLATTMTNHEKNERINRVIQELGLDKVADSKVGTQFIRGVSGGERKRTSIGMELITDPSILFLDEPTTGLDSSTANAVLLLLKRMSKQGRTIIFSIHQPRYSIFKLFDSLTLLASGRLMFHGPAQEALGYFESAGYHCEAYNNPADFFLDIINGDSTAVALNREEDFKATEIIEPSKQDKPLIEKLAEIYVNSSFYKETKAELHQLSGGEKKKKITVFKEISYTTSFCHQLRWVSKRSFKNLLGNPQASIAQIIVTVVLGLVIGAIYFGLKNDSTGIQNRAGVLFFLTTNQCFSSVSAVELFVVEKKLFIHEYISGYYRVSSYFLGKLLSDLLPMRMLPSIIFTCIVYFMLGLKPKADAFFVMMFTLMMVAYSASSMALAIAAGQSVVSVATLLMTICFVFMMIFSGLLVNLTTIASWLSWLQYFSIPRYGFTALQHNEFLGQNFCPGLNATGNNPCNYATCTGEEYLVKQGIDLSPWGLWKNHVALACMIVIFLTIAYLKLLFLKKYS
Briefly: TP_TRANSPORTER: Cytotoxicity in MT-4 and MT-4/DOX500 cells. It counts as functional, cell-based.

The target of series [2] is T1, Broad substrate specificity ATP-binding cassette transporter ABCG2. The series can be described thus: TP_TRANSPORTER: Anti-HIV-1 activity in MT-4 and MT-4/DOX500. It counts as functional, cell-based.

*1 amine or outer side, *2 acyl side, *3 side chain or, on linkers, in order; H or OH if unused. Where a SMILES comes first, the peptide text is derived from it. Bridges are numbered along the chain shown (N, C = ends). Roman numbers before positions name the chains, in order. [ ]: non-standard residue; d: D form. Actinocin(9to1) = Cc1c2oc3c(C)ccc(C(=O)[*:1])c3nc-2c(C(=O)[*:2])c(N)c1=O; NMeV = CN[C@H](C(=O)O)C(C)C; Sar = CNCC(=O)O

On to `CCc1c2c(nc3ccc(O)cc13)-c1cc3c(c(=O)n1C2)COC(=O)[C@]3(O)CC` [7-ETHYL-10-HYDROXYCAMPTOTHECIN], for which, in series [1], the Activity entry was “substrate []”.

As to `Cc1c2oc3c(C)ccc(C(=O)N[C@@H]4C(=O)N[C@H](C(C)C)C(=O)N5CCC[C@H]5C(=O)N(C)CC(=O)N(C)[C@@H](C(C)C)C(=O)O[C@@H]4C)c3nc-2c(C(=O)N[C@@H]2C(=O)N[C@H](C(C)C)C(=O)N3CCC[C@H]3C(=O)N(C)CC(=O)N(C)[C@@H](C(C)C)C(=O)O[C@@H]2C)c(N)c1=O` [DACTINOMYCIN] (I: T[dV]P[Sar][NMeV] / II: T[dV]P[Sar][NMeV]; ester I:1-I:C, II:1-II:C; linker I:N-II:N via Actinocin(9to1)), the Activity entry in series [1] is “substrate []”.

For the compound `COc1cccc2c1C(=O)c1c(O)c3c(c(O)c1C2=O)C[C@@](O)(C(=O)CO)C[C@@H]3O[C@H]1C[C@H](N)[C@H](O)[C@H](C)O1` [DOXORUBICIN], the Activity result in series [1] was “substrate []”.

In the case of `COc1cc([C@@H]2c3cc4c(cc3[C@@H](O[C@@H]3O[C@@H]5CO[C@@H](C)O[C@H]5[C@H](O)[C@H]3O)[C@H]3COC(=O)[C@H]23)OCO4)cc(OC)c1O` [ETOPOSIDE], the Activity result in series [1] is “substrate []”.

Take `CCc1c2c(nc3ccc(OC(=O)N4CCC(N5CCCCC5)CC4)cc13)-c1cc3c(c(=O)n1C2)COC(=O)[C@]3(O)CC` [IRINOTECAN]: in series [1], the Activity entry was “substrate []”.

On to `Nc1ccn([C@@H]2CS[C@H](CO)O2)c(=O)n1` [LAMIVUDINE], for which, in series [2], the Activity result is “substrate []”.

In the case of `O=C1c2c(O)ccc(O)c2C(=O)c2c(NCCNCCO)ccc(NCCNCCO)c21` [MITOXANTRONE], in series [1], the Activity result was “substrate []”.

In the case of `Cc1cn([C@H]2C[C@H](N=[N+]=[N-])[C@@H](CO)O2)c(=O)[nH]c1=O` [ZIDOVUDINE], the Activity result in series [2] and in series [1] was “substrate []” in each case.
